According to PubChem BioAssay AID274 (DTP/NCI, 2004):
Inconclusive results and toxic doses are left out. Rule for the calls: active = survival T/C of 150% or more; inactive = T/C below 125% in these data. Numbered stars: 1 amine (or outer) side, 2 acyl side, 3 side chain; on linkers, the order of the positions; unused ones are H or OH. Bridge positions count the residues as written; N and C are the ends. Square brackets hold non-standard residues; d marks the D form. Peptide text beside a SMILES is read from it. I, II: the chains in the order shown. Actinocin(9to1) = Cc1c2oc3c(C)ccc(C(=O)[*:1])c3nc-2c(C(=O)[*:2])c(N)c1=O; NMeV = CN[CH](C(=O)O)C(C)C; Aze = O=C(O)[CH]1CCN1; Sar = CNCC(=O)O

Tested on: BDF1 mice, Lewis lung carcinoma iv, survival T/C
Experiment: NCI In Vivo Anticancer Drug Screen. Data for tumor model Lewis Lung Carcinoma (intravenous) in B6D2F1 (BDF1) mice
Conditions: endpoint: median survival time, higher = longer survival
Method: The antitumor activity of compounds was measured in mice bearing transplantable tumors. Survival or tumor size were measured and the results are expressed as the measurement made in the treated group (T) divided by the measurement made in the vehicle treated control group (C). The tumor model used in this assay is Lewis Lung Carcinoma (intravenous) in B6D2F1 (BDF1) mice

[1] = dose: 12.5 mg/kg/injection, schedule: Q01DX009 (ip), vehicle: saline with Tween-80
[2] = dose: 25.0 mg/kg/injection, schedule: Q01DX009 (ip), vehicle: saline with Tween-80
[3] = dose: 50.0 mg/kg/injection, schedule: Q01DX009 (ip), vehicle: saline with Tween-80
[4] = dose: 100.0 mg/kg/injection, schedule: Q01DX009 (ip), vehicle: saline with Tween-80
[5] = dose: 200.0 mg/kg/injection, schedule: Q01DX009 (ip), vehicle: saline with Tween-80
[6] = dose: 400.0 mg/kg/injection, schedule: Q01DX009 (ip), vehicle: saline with Tween-80

Measured: T/C

CC(Oc1ccccc1-c1ccccc1)C(=O)N(C)C (centres undefined)
inactive: [1] 118 % of control | [2] 95 % of control | [3] 113 % of control | [4] 93 % of control | [5] 113 % of control | [6] 114 % of control

N[C@H](C(=O)O)[C@@H]1CC(Cl)=NO1
inactive: dose: 0.5 mg/kg/injection, schedule: Q01DX009 (ip), vehicle: saline 124 % of control | dose: 1.0 mg/kg/injection, schedule: Q01DX009 (ip), vehicle: saline 103 % of control | dose: 2.0 mg/kg/injection, schedule: Q01DX009 (ip), vehicle: saline 111 % of control | dose: 4.0 mg/kg/injection, schedule: Q01DX009 (ip), vehicle: saline 115 % of control

Cc1c2oc3c(C)ccc(C(=O)NC4C(=O)NC(C(C)C)C(=O)N5CCC5C(=O)N(C)CC(=O)N(C)C(C(C)C)C(=O)OC4C)c3nc-2c(C(=O)NC2C(=O)NC(C(C)C)C(=O)N3CCC3C(=O)N(C)CC(=O)N(C)C(C(C)C)C(=O)OC2C)c(N)c1=O (centres undefined) (I: TV[Aze][Sar][NMeV] / II: TV[Aze][Sar][NMeV]; ester I:1-I:C, II:1-II:C; linker I:N-II:N via Actinocin(9to1); configuration not given here)
inactive: dose: 194.0 micrograms/kg/injection, schedule: Q04DX003 (ip), vehicle: saline + alcohol 87 % of control | dose: 270.0 micrograms/kg/injection, schedule: Q04DX003 (ip), vehicle: saline + alcohol 94 % of control | dose: 324.0 micrograms/kg/injection, schedule: Q04DX003 (ip), vehicle: saline + alcohol 95 % of control | dose: 450.0 micrograms/kg/injection, schedule: Q04DX003 (ip), vehicle: saline + alcohol 95 % of control | dose: 540.0 micrograms/kg/injection, schedule: Q04DX003 (ip), vehicle: saline + alcohol 109 % of control | dose: 648.0 micrograms/kg/injection, schedule: Q01DX001 (ip), vehicle: saline + alcohol 97 % of control | dose: 750.0 micrograms/kg/injection, schedule: Q04DX003 (ip), vehicle: saline + alcohol 108 % of control | dose: 1080.0 micrograms/kg/injection, schedule: Q01DX001 (ip), vehicle: saline + alcohol 98 % of control

Nc1ccn([C@@H](C=O)O[C@@H](C=O)CO)c(=O)n1
inactive: dose: 6.25 mg/kg/injection, schedule: Q01DX009 (ip), vehicle: saline 96 % of control | dose: 12.5 mg/kg/injection, schedule: Q01DX009 (ip), vehicle: saline 105 % of control | dose: 25.0 mg/kg/injection, schedule: Q01DX009 (ip), vehicle: saline 100 % of control | dose: 50.0 mg/kg/injection, schedule: Q01DX009 (ip), vehicle: saline 96 % of control | dose: 100.0 mg/kg/injection, schedule: Q01DX009 (ip), vehicle: saline 97 % of control

COc1ccc(-c2csc(=[N+]3CCCCC3)s2)cc1
inactive: dose: 1.56 mg/kg/injection, schedule: Q01DX009 (ip), vehicle: water 94 % of control | dose: 3.12 mg/kg/injection, schedule: Q01DX009 (ip), vehicle: water 101 % of control | dose: 6.25 mg/kg/injection, schedule: Q01DX009 (ip), vehicle: water 100 % of control | dose: 12.5 mg/kg/injection, schedule: Q01DX009 (ip), vehicle: water 99 % of control | dose: 25.0 mg/kg/injection, schedule: Q01DX009 (ip), vehicle: water 108 % of control

O=S(=O)(O)O.[W]
inactive: dose: 0.38 mg/kg/injection, schedule: Q01DX009 (ip), vehicle: saline 102 % of control | dose: 0.75 mg/kg/injection, schedule: Q01DX009 (ip), vehicle: saline 118 % of control | dose: 1.5 mg/kg/injection, schedule: Q01DX009 (ip), vehicle: saline 98 % of control | dose: 3.0 mg/kg/injection, schedule: Q01DX009 (ip), vehicle: saline 119 % of control

CCN1/C(=C/C=C/C=C\C=C\c2sc3ccc4ccccc4c3[n+]2CC)Sc2ccc3ccccc3c21
inactive: dose: 0.08 mg/kg/injection, schedule: Q01DX009 (ip), vehicle: saline with Tween-80 101 % of control | dose: 0.16 mg/kg/injection, schedule: Q01DX009 (ip), vehicle: saline with Tween-80 104 % of control | dose: 0.31 mg/kg/injection, schedule: Q01DX009 (ip), vehicle: saline with Tween-80 98 % of control | dose: 0.62 mg/kg/injection, schedule: Q01DX009 (ip), vehicle: saline with Tween-80 104 % of control | dose: 1.25 mg/kg/injection, schedule: Q01DX009 (ip), vehicle: saline with Tween-80 105 % of control | dose: 2.5 mg/kg/injection, schedule: Q01DX009 (ip), vehicle: saline with Tween-80 105 % of control

C[C@]12CC[C@@H]3c4ccc(OC(=O)Cc5ccc(N(CCCl)CCCl)cc5)cc4CC[C@H]3[C@@H]1CC[C@@H]2OC(=O)Cc1ccc(N(CCCl)CCCl)cc1
inactive: [1] 97 % of control | [2] 104 % of control | [3] 99 % of control | [4] 91 % of control | [5] 98 % of control | [6] 100 % of control
